This note sets out measurements from patent US20100249175A1, “Dicationic compounds which selectively recognize G-quadruplex DNA” (priority 2005, published 2010).

Usually melting point stands for the temperature of the solid-liquid transition. What is called IC50 is the concentration that gives 50% inhibition.

The subject of data set [1] is telomeric G-quadruplex DNA sequence d[AG3(T2AG3)3] (SEQ ID NO: 1). Nature of the data set: CD titration of compounds into human telomeric G-quadruplex DNA (induced CD). The note with it: for Induced CD (exciton) / Induced CD (no exciton): G-Quadruplex Affinity. Set-up: key to Induced CD (no exciton): ++: Relative strength of the induced CD is indicated by the number of (+) marks; +++: Relative strength of the induced CD is indicated by the number of (+) marks; ++++: Relative strength of the induced CD is indicated by the number of (+) marks. The class given is binding. An excerpt: The oligonucleotides d[AG3(T2AG3)3] (SEQ ID NO: 1), d[AG3TG4AG3TG4A] (SEQ ID NO: 2), d[G4(T4G4)3] (SEQ ID NO: 3), d[(T2G4)4] (SEQ ID NO: 4), d[(GC)7] (SEQ ID NO: 5), d[[…]] (SEQ ID NO: 6), d[G2T2G2TGTG2T2G2] (SEQ ID NO: 7), d[[…]] (SEQ ID NO: 8), d[[…]] (SEQ ID NO: 9), d[[…]] (SEQ ID NO: 10), d[[…]] (SEQ ID NO: 11), d[TTAGGGT] (SEQ ID NO: 12), and d[TGGGGT] (SEQ ID NO: 13) were purchased with HPLC purification from Midland Certified Reagent Company (The Midland Certified Reagent Company, Inc., Midland, Tex., USA). The concentration of each DNA sample was determined spectrophotometrically at 260 nm using the nearest neighbor extinction coefficient.
Stock solutions of individual dicationic polyaryl compounds were prepared in double distilled water and diluted to working concentrations immediately before use with buffer. All measurements were performed at 20° C. in a 10 mM HEPES buffer (pH 7.4) containing 3 mM EDTA and 50 mM KCl, NaCl, or LiCl. Absorbance spectra were obtained on a Varian Cary 300 BIO UV-visible spectrophotometer (Varian, Inc., Palo Alto, Calif., United States of America) in a quartz cell with a 1 cm pathlength. CD spectra were recorded using a Jasco J-810 spectrapolarimeter (Jasco, Inc., Easton, Md., United States of America) in a 1-cm cell using an instrument scanning speed of 50 nm/min with a response time of 1 s. The spectra were averaged over four scans. A buffer baseline scan was collected in the same cuvette and subtracted from the average scan for each sample. Appropriate amounts of dicationic compound stock solution or DNA were added sequentially to increase the molar ratio.
When an achiral ligand binds tightly to a chiral host, such as DNA, a CD signal is induced in the wavelength region corresponding to the absorbance of the ligand. […] An additional negative band centered at 395 nm overlaps with the higher energy exciton band. […] Restriction of the rotational and translational freedom of the two molecules of the dimer relative to each other will cause an increase in the rotational strength of the induced CD band, resulting in a large ellipticity. See Allenmark, S., Chirality, 15, 409-422 (2003).
Some compounds appeared to bind to the telomeric G-quadruplex DNA sequence d[AG3(T2AG3)3] […] Relative strength of the induced CD is indicated by the number of (+) marks.

In data set [2] the test system is Plasmodium falciparum (P. f.). The data set is described as follows: In vitro antiprotozoal activity against P. f. The data set is classed as cell-based. The note with it: read-out: P.f. (IC50). On the procedure: (§1) In vitro antiprotozoal activities were measured following established protocols. […] E., et al., Bioorg.
The subject of data set [3] is STIB 900 strain of Trypanosoma brucei rhodesiense (T. b. r.). Nature of the data set: In vivo T. b. r. STIB 900 mouse model. The note with it: for In Vivo T.b.r. cures: mice cured / mice infected, days 3-6 post-infection; for In Vivo T.b.r. survival time: observation up to day 60. The protocol: Groups of four mice were infected intraperitoneally with 2×10^5 bloodstream forms of T. b. r. STIB 900 which originates from a patient in Tanzania. On days 3, 4, 5, and 6 post-infection the experimental groups were treated with the drugs either by the intraperitoneal or for prodrugs by the oral route. Usually the highest tolerated dose was used which was determined in a pretoxicological experiment. Parasitemia of the mice was checked daily up to day 14 post-infection and thereafter 2 times per week up to day 60. One group of mice was not treated and acted as control. For relapsing mice, the day of death was recorded and the survival time determined.

Data set [4] has as its system Trypanosoma brucei rhodesiense (T. b. r.). The data set is described as follows: In vitro antiprotozoal activity against T. b. r. The class given is cell-based. On the procedure: as §1

Counter-ions that a name gives are not always drawn. Like-named read-outs stand apart in the source and are kept apart here.

For the molecule `N=C(N)c1ccc(-c2ccc(-c3ccc(-c4ccc(C(=N)N)cc4)[se]3)[se]2)cc1`, the melting point is > 300 °C.

For `N=C(N)c1ccnc(-c2ccc(-c3ccc(-c4cc(C(=N)N)ccn4)[se]3)[se]2)c1`, the melting point is > 300 °C.

Regarding `N=C(N)c1ccc(-c2ccc(-c3ccc(-c4ccc(C(=N)N)cc4)o3)o2)cc1` [Compound 17, 5,5′-bis-(4-Amidinophenyl)-2,2′-bifuran hydrochloride salt], in data set [1], the “exciton splitting in CD spectra (in words)” value (“exciton splitting” below) is given as “induced exciton splitting” and the “Induced CD (exciton)” value is “++++”. The IC50 in data set [2] was found to be 0.02 µM. In addition, in data set [3] (10 mg/kg ip), the “In Vivo T.b.r. cures” value is reported as 0/4 and the “In Vivo T.b.r. survival time” value is 22 days.

In the case of `N=C(N)c1ccc(-c2ccc(-c3ccc(-c4ccc(C(=N)N)cn4)o3)o2)nc1` [Compound 22, 5,5′-Bis-(5-amidino-2-pyridyl)-2,2′-bifuran], the melting point was > 300 °C.

Take `N=C(N)c1ccc(-c2ccc(-c3ccc(-c4ccc(C(=N)N)cc4)s3)s2)cc1` [Compound 26a, 5,5′-Bis-(4-amidinophenyl)-2,2′-bithiophene]: the melting point is > 300 °C.

For `N=C(N)c1ccnc(-c2ccc(-c3ccc(-c4cc(C(=N)N)ccn4)s3)s2)c1` [Compound 26b, 5,5′-Bis-(4-amidino-2-pyridyl)-2,2′-bithiophene], the melting point is > 300 °C.

Take `N=C(N)c1ccc2nc(-c3ccc(-c4ccc(C(=N)N)o4)o3)[nH]c2c1` [Compound 45]: the “Induced CD (no exciton)” value in data set [1] is given as “++”. Moreover, the IC50 in data set [2] (in vitro) was found to be 0.092 µM; in data set [4], 0.102 µM.

For `COc1ccc(-c2nc3ccc(-c4nc5ccc(C(=N)N)cc5[nH]4)cc3[nH]2)cc1` [Compound 46], the “Induced CD (no exciton)” value in data set [1] is “++++”. Further, in data set [2] (in vitro), the IC50 came to 0.029 µM. Moreover, in data set [3] (5 mg/kg ip), the “In Vivo T.b.r. cures” value was 0/4 and the “In Vivo T.b.r. survival time” value was found to be 14.75 days. The molecule further returned a concentration for half-maximal inhibition (IC50) in data set [4] of 0.016 µM.

On to `N=C(N)c1ccc(-c2ccc(-c3nc4ccc(C(=N)N)cc4[nH]3)o2)cc1` [Compound 47], for which the “Induced CD (no exciton)” value in data set [1] is “+++”. The IC50 in data set [2] (in vitro) is 0.096 µM; in data set [4] it was 0.122 µM. Moreover, the “In Vivo T.b.r. cures” value in data set [3] (20 mg/kg ip) is on record as 1/4. Further, the “In Vivo T.b.r. survival time” value in data set [3] (20 mg/kg ip) was > 27.75 days.

On to `c1cc(-c2ccc(-c3nc4ccc(C5=NCCN5)cc4[nH]3)o2)ccc1C1=NCCN1` [Compound 48], for which the “Induced CD (no exciton)” value in data set [1] is listed as “++++”.

As to `c1cc(-c2ccc(-c3ccc(C4=NCCN4)o3)o2)oc1C1=NCCN1` [Compound 49], in data set [1], the “exciton splitting” value is “induced exciton splitting” and the “Induced CD (exciton)” value was “++”. Besides, in data set [2] (in vitro), the IC50 is 0.093 µM. Moreover, half-maximal inhibition in data set [4] (IC50) was put at 0.793 µM.

Regarding `c1ccc2[nH]c(-c3ccc(-c4ccc(C5=NCCN5)cc4)o3)nc2c1` [Compound 50], in data set [1], the “Induced CD (no exciton)” value is listed as “+++”.

For the molecule `N=C(N)c1ccc(-c2ccc(-c3ccc(C(=N)N)o3)cc2)cc1` [Compound 51], in data set [1], the “exciton splitting” value was “induced exciton splitting” and the “Induced CD (exciton)” value is recorded as “+”. In addition, the IC50 in data set [2] (in vitro) is 0.001 µM. For the same molecule, the IC50 in data set [4] came out at 0.005 µM.

Consider `N=C(N)c1ccc2nc(-c3ccc(-c4ccc(C(=N)N)c(F)c4)o3)[nH]c2c1` [Compound 52], for which, in data set [1], the “Induced CD (no exciton)” value is “+++”. Moreover, the IC50 in data set [2] (in vitro) worked out at 0.031 µM. Besides, in data set [3] (20 mg/kg ip), the “In Vivo T.b.r. cures” value was 2/4 and the “In Vivo T.b.r. survival time” value was > 52 days. In data set [4], the IC50 was determined as 0.0525 µM.

Consider `CC1=CC(C(=N)N)=CN2C=C(c3ccc(-c4ccc(C(=N)N)cc4)o3)NC12` (centres unmarked) [Compound 53], for which the “Induced CD (no exciton)” value in data set [1] is reported as “+++”. For the same molecule, the IC50 in data set [2] (in vitro) turned out to be 0.088 µM. Also, in data set [3] (5 mg/kg ip), the “In Vivo T.b.r. cures” value is 4/4 and the “In Vivo T.b.r. survival time” value is > 60 days. In data set [4], the IC50 was found to be 0.009 µM.

Turning to `N=C(N)c1ccc(-c2ccc(-c3ccc(C(=N)N)cc3)o2)cc1` [furamidine, reference compound], the “In Vivo T.b.r. survival time” value in data set [3] (5 mg/kg ip) worked out at 46.5 days.
